The values below come from PMC8154581, “Discovery of Novel Thiophene-arylamide Derivatives as DprE1 Inhibitors with Potent Antimycobacterial Activities” (Journal of Medicinal Chemistry, 2021).

Holding throughout (assay): microbe, parasite or virus in culture
What all share (assay type): cell-based

For assay [1], the system named is M. tuberculosis clinical isolate 13946. To be noted: Mycobacterium tuberculosis, read-out: MIC 13946.
In assay [2] the test system is M. tuberculosis clinical isolate 14862. To be noted: Mycobacterium tuberculosis, read-out: MIC 14862.
Assay [3] relates to PBTZ169-resistant strain of M. tuberculosis. The following applies: Mycobacterium tuberculosis, read-out: MIC PBTZ169-resistant strain.
In assay [4] the test system is bedaquiline-resistant strain of M. tuberculosis. The following applies: Mycobacterium tuberculosis, read-out: MIC bedaquiline-resistant strain.

≈ marks a conversion by molar mass, not a printed value.

Consider `CCOC(=O)NC(=O)c1ccsc1NC(=O)c1ccc(C(=O)N2CCCCC2)cc1` [Compound 23j, Ethyl (2-(4-(Piperidine-1-carbonyl)benzamido)thiophene-3-carbonyl)carbamate], for which the MIC in assay [1] was determined as 0.082 µg/mL (≈ 0.191 µM); in assay [2], 0.059 µg/mL (≈ 0.137 µM).
The like results for `CCOC(=O)NC(=O)c1ccsc1NC(=O)c1ccc(C(=O)N2CCCCC2)c(F)c1` [Compound 24f, Ethyl (2-(3-Fluoro-4-(piperidine-1-carbonyl)benzamido)thiophene-3-carbonyl)carbamate] were, in that order, 0.031 µg/mL (≈ 0.0693 µM) and 0.031 µg/mL (≈ 0.0693 µM).
The like results for `CCOC(=O)NC(=O)c1ccsc1NC(=O)c1ccc(C(=O)N2CCCCC2)s1` [Compound 24j, Ethyl (2-(5-(Piperidine-1-carbonyl)thiophene-2-carboxamido)thiophene-3-carbonyl)carbamate] were, in that order, 0.12 µg/mL (≈ 0.276 µM) and 0.12 µg/mL (≈ 0.276 µM).
The like results for `CCOC(=O)NC(=O)c1ccsc1NC(=O)c1coc(C(=O)N2CCCCC2)c1` [Compound 24k, Ethyl (2-(5-(Piperidine-1-carbonyl)furan-3-carboxamido)thiophene-3-carbonyl)carbamate] were, in that order, 0.44 µg/mL (≈ 1.05 µM) and 0.23 µg/mL (≈ 0.548 µM).
As to `COC(=O)NC(=O)c1ccsc1NC(=O)c1ccc(C(=O)N2CCCCC2)cc1` [Compound 25a, Methyl (2-(4-(Piperidine-1-carbonyl)benzamido)thiophene-3-carbonyl)carbamate], the MIC in assay [1] and in assay [2] was 0.24 µg/mL (≈ 0.578 µM) in each case.
Take `COC(=O)NC(=O)c1ccsc1NC(=O)c1ccc(C(=O)N2CCCCC2)c(F)c1` [Compound 25b, Methyl (2-(3-Fluoro-4-(piperidine-1-carbonyl)benzamido)thiophene-3-carbonyl)carbamate]: the values for the MIC in assay [1] and in assay [2] were 0.062 µg/mL (≈ 0.143 µM) and 0.12 µg/mL (≈ 0.277 µM), respectively.
The like results for `O=C(Nc1sccc1C(=O)Nc1nccc(C(F)(F)F)n1)c1ccc(C(=O)N2CCCCC2)cc1` [Compound 25l, 2-(4-(Piperidine-1-carbonyl)benzamido)-N-(4-(trifluoromethyl)pyrimidin-2-yl)thiophene-3-carboxamide] were, in that order, 0.94 µg/mL (≈ 1.87 µM) and 0.48 µg/mL (≈ 0.953 µM).
As for `NNC(=O)c1ccncc1` [INH, isoniazid, reference compound], the MIC is 2.46 µg/mL (≈ 17.9 µM) in assay [1] and more than 10 µg/mL in assay [2].
Take `O=c1nc(N2CCN(CC3CCCCC3)CC2)sc2c([N+](=O)[O-])cc(C(F)(F)F)cc12` [PBTZ169]: in assay [3], the MIC was found to be 0.005 µg/mL (≈ 0.011 µM).
Consider `CCOC(=O)NC(=O)c1ccsc1NC(=O)c1nc2ccccc2s1` [TCA1, reference compound], for which the MIC in assay [1] was determined as 0.95 µg/mL (≈ 2.53 µM); in assay [2], 0.48 µg/mL (≈ 1.28 µM).
Take `COc1nc2ccc(Br)cc2cc1[C@@H](c1ccccc1)[C@@](O)(CCN(C)C)c1cccc2ccccc12` [bedaquiline, reference compound]: in assay [4], the MIC came out at 2.24 µg/mL (≈ 4.03 µM).
